Laboratory results as given in patent US4551477A, “Esters of alkoxy-acylderivatives of carnitine and pharmaceutical compositions containing same” (Sigma-Tau Industrie Farmaceutiche Riunite S.P.A., priority 1974, dated 1985).

Tests used:
[1] = test system: rabbit isolated heart; test: Inotropic effect on rabbit isolated heart (Langendorff) after anoxia; conditions: Oryctolagus cuniculus, 10 min, dose 10^-5 gl^-1, 10 minutes after interruption of the anoxic period, increase against controls
Procedure: Rabbit hearts isolated by the Langendorff method were perfused with oxygenized Ringer solution at 38.2° C. The isometric contractions, electrogardiogram and coronary flow were recorded using a "Battaglia-Rangoni" polygraph. By removing the oxygen from the perfusion fluid, metabolic damage was induced in the cardiac muscle, up to an 80% reduction in the cardiac contractile force.
Under these conditions of prolonged anoxia the aerobic glycolysis of the myocardium is slowed down, accompanied by the storage of acid catabolites due to both the accumulation of pyruvic acid and its conversion to lactic acid which cannot be utilized because of the depression of pyridine enzymes, such as LDH (lactodehydrogenase). This has repercussions on the anaerobic glycolysis affecting an ever increasing number of enzymes, accompanied by a progressive and increasingly critical exhaustion of the myocardium. Thus a whole series of cardiac muscle fatigue levels occurs which can be observed by the behavior of the examined parameters, namely the contractile force, coronary flow, heart rate and cardiac rhythm. As soon as the contractile force was reduced by 80%, the perfusion fluid was once again oxygenized either without adding other compounds (controls) or with the addition of the compounds under examination.
In the Table there are shown the percentage value of increase against the controls.

[2] = Acute toxicity (LD50) in mice; conditions: mouse, in vivo, ip
Description: (a) Acute toxicity (LD50)
Acute toxicity was investigated by using the method disclosed by Weil C. S. in "Tables for convenient calculation of median-effective dose (LD50 or ED50) and instructions in their use", Biometrics, 249-253, 1952.
The tolerance of the compounds under examination was investigated in mice after administration by the intraperitoneal or oral route. […] (see the Table).

[3] = test system: mice; test: Antiarrhythmic (antifibrillatory) effect, aconitine-induced arrhythmia in mice; type: in vivo; conditions: Mus musculus, iv, read-out: Antifibrillatory activity, % reduction
Procedure: (c) Antiarrhythmic effect
In order to evaluate the antiarrhythmic activity of the carnitine derivatives of this invention studied with in vivo tests in addition to and in comparison with the currently employed in vitro tests, the method disclosed by Nwangwu et al. (Arch. Int. Pharmacodyn., 1977, 229, 219) was used.
According to this method an aconitine solution is injected into the caudal vein of mice and the onset time of arrhythmia and tachycardia after 2 to 60 minutes from administration of the compounds under examination is recorded.
The antiarrhythmic activity calculated from the increase in the latency time of the onset of the arrhythmias of the treated animals in comparison with the controls, is illustrated in the Table.

[4] = test system: mice; test: Adrenaline-antagonizing effect in mice; type: in vivo, male Albino Swiss mice; conditions: Mus musculus, ip, 30 min before adrenaline, mortality checked for 36 hours, read-out: Antiadrenaline activity, % mortality reduction; for responders at 300 mg/kg: dose 300 mg kg^-1 i.p.; for responders at 70 mg/kg: dose 70 mg kg^-1 i.p.; for responders at 100 mg/kg: dose 100 mg kg^-1 i.p.; for responders at 50 mg/kg: dose 50 mg kg^-1 i.p.
Procedure: (d) Adrenaline-antagonizing effect
Groups of ten male Albino Swiss mice, weighing 12-22 g, were intraperitoneally administered either with the esters of the present invention or with saline (control) and, after 30 minutes, with adrenaline (treated) at a dose capable of bringing about death to 100% of the control animals due to ventricular fibrillation and cardiac lesions ensuing from increase in frequency, pressure and oxygen uptake from the myocardium.
Mortality was checked for 36 hours and the effect of the compounds expressed as percentage of surviving animals, is shown in the Table.

Compound | activation at 0.01 µg/mL [1] [%] | LD50 [2] [mg/kg] | inhibition in vivo at 50 mg/kg [3] [%] | responders at 100 mg/kg [4] [%] | other results
CCOCC(=O)OC(CC(=O)OC)C[N+](C)(C)C (centres unmarked) [R = ethoxyacetyl; R' = methyl] | 55 | 1100 |  |  | inhibition in vivo at 150 mg/kg [3]: 90%; responders at 300 mg/kg [4]: 75%
COCC(=O)OC(CC(=O)OCC(C)C)C[N+](C)(C)C (centres unmarked) [R = methoxyacetyl; R' = isobutyl, methoxyacetyl carnitine isobutyl ester] | 79 | 690 |  |  | inhibition in vivo at 75 mg/kg [3]: 85%; responders at 300 mg/kg [4]: 60%
CCOC(=O)CC(C[N+](C)(C)C)OC(=O)COC (centres unmarked) [R = methoxyacetyl; R' = ethyl] | 58 | 550 | 70 |  | responders at 70 mg/kg [4]: 70%
CCCCOC(=O)CC(C[N+](C)(C)C)OC(=O)COCC (centres unmarked) [R = ethoxyacetyl; R' = butyl] | 58 | 600 |  | 75 | inhibition in vivo at 40 mg/kg [3]: 75%
COCC(=O)OC(CC(=O)OC)C[N+](C)(C)C (centres unmarked) [R = methoxyacetyl; R' = methyl] | 72 | 1200 |  |  | inhibition in vivo at 300 mg/kg [3]: 75%; responders at 450 mg/kg ([4]; dose 450 mg kg^-1 i.p.): 70%
CCOCC(=O)OC(CC(=O)OC(C)C)C[N+](C)(C)C (centres unmarked) [R = ethoxyacetyl; R' = isopropyl] | 72 | 700 | 70 | 60 | 
COC(C)C(=O)OC(CC(=O)OC(C)C)C[N+](C)(C)C (centres unmarked) [R = 2-methoxypropionyl; R' = isopropyl, 2-methoxy propionyl carnitine isopropyl ester] | 70 | 850 | 68 | 58 | 
CCCCOC(=O)CC(C[N+](C)(C)C)OC(=O)COC (centres unmarked) [R = methoxyacetyl; R' = butyl] | 55 | 550 |  | 70 | inhibition in vivo at 40 mg/kg [3]: 75%
CCCOC(=O)CC(C[N+](C)(C)C)OC(=O)COCC (centres unmarked) [R = ethoxyacetyl; R' = propyl] | 49 | 620 | 75 | 75 | 
CCOCC(=O)OC(CC(=O)OCC)C[N+](C)(C)C (centres unmarked) [R = ethoxyacetyl; R' = ethyl] | 68 | 600 |  |  | inhibition in vivo at 35 mg/kg [3]: 65%; responders at 50 mg/kg [4]: 50%
CCOC(C)C(=O)OC(CC(=O)OC(C)C)C[N+](C)(C)C (centres unmarked) [R = 2-ethoxypropionyl; R' = isopropyl] | 50 | 1200 | 70 |  | responders at 300 mg/kg [4]: 50%
CCCOC(=O)CC(C[N+](C)(C)C)OC(=O)COC (centres unmarked) [R = methoxyacetyl; R' = propyl] | 78 | 650 | 100 |  | responders at 50 mg/kg [4]: 75%
COCC(=O)OC(CC(=O)OC(C)C)C[N+](C)(C)C (centres unmarked) [R = methoxyacetyl; R' = isopropyl] | 55 | 800 | 80 |  | responders at 50 mg/kg [4]: 75%
CCOCC(=O)OC(CC(=O)OCC(C)C)C[N+](C)(C)C (centres unmarked) [R = ethoxyacetyl; R' = isobutyl, ethoxyacetyl carnitine isobutyl ester] | 70 | 750 |  |  | inhibition in vivo at 10 mg/kg [3]: 70%; responders at 70 mg/kg [4]: 50%
